{
  "source": "PubChem BioAssay AID1963848",
  "about": "(Molecular Pharmacology Branch, DTP, NCI, 2024);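 further: spheroids exposed to drugs for seven days before readout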;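 on viability, T/C: percent viability relative to DMSO vehicle control taken as 100%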",
  "tested_on": "379773-124-R-J2-PDC spheroid viability",
  "experiment": "Anticancer human tumor 379773-124-R-J2-PDC patient-derived endometrial carcinoma cell line growth inhibition [POLQ]",
  "conditions": "spheroids with HUVEC and MSC; for IC50: curve of first compound; for viability, T/C: stronger effect = lower value",
  "procedure,_shortened": "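Patient-derived tumour cells were co-cultured with HUVEC and mesenchymal stem cells as multicellular spheroids at 37 °C. They were treated with POLQ inhibitors (novobiocin, ART-558, RP6685) alone or combined with other agents. Top concentrations were at or near clinical Cmax (otherwise 10 microM; SN-38 at 1 microM), decreasing in half-log steps.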",
  "key": {"[1]": {"conditions": "second compound 0.0316 µM, first compound 0.00316 µM"}, "[2]": {"conditions": "second compound 0.0316 µM, first compound 0.01 µM"}, "[3]": {"conditions": "second compound 0.0316 µM, first compound 0.0316 µM"}, "[4]": {"conditions": "second compound 0.0316 µM, first compound 0.1 µM"}, "[5]": {"conditions": "second compound 0.1 µM, first compound 0.00316 µM"}, "[6]": {"conditions": "second compound 0.1 µM, first compound 0.01 µM"}, "[7]": {"conditions": "second compound 0.1 µM, first compound 0.0316 µM"}, "[8]": {"conditions": "second compound 0.1 µM, first compound 0.1 µM"}, "[9]": {"conditions": "second compound 0.316 µM, first compound 0.00316 µM"}, "[10]": {"conditions": "second compound 0.316 µM, first compound 0.01 µM"}, "[11]": {"conditions": "second compound 0.316 µM, first compound 0.0316 µM"}, "[12]": {"conditions": "second compound 0.316 µM, first compound 0.1 µM"}, "[13]": {"conditions": "second compound 1 µM, first compound 0.00316 µM"}, "[14]": {"conditions": "second compound 1 µM, first compound 0.01 µM"}, "[15]": {"conditions": "second compound 1 µM, first compound 0.0316 µM"}, "[16]": {"conditions": "second compound 1 µM, first compound 0.1 µM"}, "[17]": {"conditions": "second compound 3.16 µM, first compound 0.00316 µM"}, "[18]": {"conditions": "second compound 3.16 µM, first compound 0.01 µM"}, "[19]": {"conditions": "second compound 3.16 µM, first compound 0.0316 µM"}, "[20]": {"conditions": "second compound 3.16 µM, first compound 0.1 µM"}, "[21]": {"conditions": "second compound 10 µM, first compound 0.00316 µM"}, "[22]": {"conditions": "second compound 10 µM, first compound 0.01 µM"}, "[23]": {"conditions": "second compound 10 µM, first compound 0.0316 µM"}, "[24]": {"conditions": "second compound 10 µM, first compound 0.1 µM"}},
  "data": [
    {"smiles": "CC[C@@]1(O)C(=O)OCc2c1cc1n(c2=O)Cc2cc3c(CN(C)C)c(O)ccc3nc2-1", "note": "+ Nc1ccc(C#CCN(C(=O)Cc2ncc(C(F)(F)F)cc2C(F)(F)F)c2ccc(F)cc2)nn1", "values": [
      {"measurement": "IC50", "setting": "second compound 0.0316 µM", "result": 29.5, "unit": "nM"},
      {"measurement": "IC50", "setting": "second compound 0.1 µM", "result": 29, "unit": "nM"},
      {"measurement": "IC50", "setting": "second compound 0.316 µM", "result": 26, "unit": "nM"},
      {"measurement": "IC50", "setting": "second compound 1 µM", "result": 26.4, "unit": "nM"},
      {"measurement": "IC50", "setting": "second compound 3.16 µM", "result": 24.5, "unit": "nM"},
      {"measurement": "IC50", "setting": "second compound 10 µM", "result": 22.5, "unit": "nM"},
      {"measurement": "viability, T/C", "setting": "second compound 0.0316 µM, first compound 0.000316 µM", "result": 96.7, "unit": "%"},
      {"measurement": "viability, T/C", "setting": "second compound 0.0316 µM, first compound 0.001 µM", "result": 89, "unit": "%"},
      {"measurement": "viability, T/C", "setting": "[1]", "result": 80.7, "unit": "%"},
      {"measurement": "viability, T/C", "setting": "[2]", "result": 96, "unit": "%"},
      {"measurement": "viability, T/C", "setting": "[3]", "result": 47.3, "unit": "%"},
      {"measurement": "viability, T/C", "setting": "[4]", "result": 22.3, "unit": "%"},
      {"measurement": "viability, T/C", "setting": "second compound 0.1 µM, first compound 0.000316 µM", "result": 90.8, "unit": "%"},
      {"measurement": "viability, T/C", "setting": "second compound 0.1 µM, first compound 0.001 µM", "result": 87.6, "unit": "%"},
      {"measurement": "viability, T/C", "setting": "[5]", "result": 91.4, "unit": "%"},
      {"measurement": "viability, T/C", "setting": "[6]", "result": 89.6, "unit": "%"},
      {"measurement": "viability, T/C", "setting": "[7]", "result": 46.7, "unit": "%"},
      {"measurement": "viability, T/C", "setting": "[8]", "result": 19.8, "unit": "%"},
      {"measurement": "viability, T/C", "setting": "second compound 0.316 µM, first compound 0.000316 µM", "result": 93, "unit": "%"},
      {"measurement": "viability, T/C", "setting": "second compound 0.316 µM, first compound 0.001 µM", "result": 96.3, "unit": "%"},
      {"measurement": "viability, T/C", "setting": "[9]", "result": 102, "unit": "%"},
      {"measurement": "viability, T/C", "setting": "[10]", "result": 86.2, "unit": "%"},
      {"measurement": "viability, T/C", "setting": "[11]", "result": 42.6, "unit": "%"},
      {"measurement": "viability, T/C", "setting": "[12]", "result": 20.8, "unit": "%"},
      {"measurement": "viability, T/C", "setting": "second compound 1 µM, first compound 0.000316 µM", "result": 100, "unit": "%"},
      {"measurement": "viability, T/C", "setting": "second compound 1 µM, first compound 0.001 µM", "result": 92, "unit": "%"},
      {"measurement": "viability, T/C", "setting": "[13]", "result": 92.2, "unit": "%"},
      {"measurement": "viability, T/C", "setting": "[14]", "result": 83.7, "unit": "%"},
      {"measurement": "viability, T/C", "setting": "[15]", "result": 43.6, "unit": "%"},
      {"measurement": "viability, T/C", "setting": "[16]", "result": 21.2, "unit": "%"},
      {"measurement": "viability, T/C", "setting": "second compound 3.16 µM, first compound 0.000316 µM", "result": 110, "unit": "%"},
      {"measurement": "viability, T/C", "setting": "second compound 3.16 µM, first compound 0.001 µM", "result": 90.5, "unit": "%"},
      {"measurement": "viability, T/C", "setting": "[17]", "result": 85.8, "unit": "%"},
      {"measurement": "viability, T/C", "setting": "[18]", "result": 85.1, "unit": "%"},
      {"measurement": "viability, T/C", "setting": "[19]", "result": 39.6, "unit": "%"},
      {"measurement": "viability, T/C", "setting": "[20]", "result": 18.9, "unit": "%"},
      {"measurement": "viability, T/C", "setting": "second compound 10 µM, first compound 0.000316 µM", "result": 94, "unit": "%"},
      {"measurement": "viability, T/C", "setting": "second compound 10 µM, first compound 0.001 µM", "result": 79.9, "unit": "%"},
      {"measurement": "viability, T/C", "setting": "[21]", "result": 81.9, "unit": "%"},
      {"measurement": "viability, T/C", "setting": "[22]", "result": 83.3, "unit": "%"},
      {"measurement": "viability, T/C", "setting": "[23]", "result": 36, "unit": "%"},
      {"measurement": "viability, T/C", "setting": "[24]", "result": 21.8, "unit": "%"}
    ]},
    {"smiles": "CCc1c2c(nc3ccc(O)cc13)-c1cc3c(c(=O)n1C2)COC(=O)[C@]3(O)CC", "note": "+ Nc1ccc(C#CCN(C(=O)Cc2ncc(C(F)(F)F)cc2C(F)(F)F)c2ccc(F)cc2)nn1", "values": [
      {"measurement": "IC50", "setting": "second compound 0.0316 µM", "result": "< 3.16", "unit": "nM"},
      {"measurement": "IC50", "setting": "second compound 0.1 µM", "result": 3.52, "unit": "nM"},
      {"measurement": "IC50", "setting": "second compound 0.316 µM", "result": "< 3.16", "unit": "nM"},
      {"measurement": "IC50", "setting": "second compound 1 µM", "result": "< 3.16", "unit": "nM"},
      {"measurement": "IC50", "setting": "second compound 3.16 µM", "result": "< 3.16", "unit": "nM"},
      {"measurement": "IC50", "setting": "second compound 10 µM", "result": "< 3.16", "unit": "nM"},
      {"measurement": "viability, T/C", "setting": "[1]", "result": 45.5, "unit": "%"},
      {"measurement": "viability, T/C", "setting": "[2]", "result": 17.6, "unit": "%"},
      {"measurement": "viability, T/C", "setting": "[3]", "result": 12.6, "unit": "%"},
      {"measurement": "viability, T/C", "setting": "[4]", "result": 4.69, "unit": "%"},
      {"measurement": "viability, T/C", "setting": "second compound 0.0316 µM, first compound 0.316 µM", "result": 3.2, "unit": "%"},
      {"measurement": "viability, T/C", "setting": "second compound 0.0316 µM, first compound 1 µM", "result": 1.03, "unit": "%"},
      {"measurement": "viability, T/C", "setting": "[5]", "result": 53.6, "unit": "%"},
      {"measurement": "viability, T/C", "setting": "[6]", "result": 16.7, "unit": "%"},
      {"measurement": "viability, T/C", "setting": "[7]", "result": 13.1, "unit": "%"},
      {"measurement": "viability, T/C", "setting": "[8]", "result": 4.92, "unit": "%"},
      {"measurement": "viability, T/C", "setting": "second compound 0.1 µM, first compound 0.316 µM", "result": 1.48, "unit": "%"},
      {"measurement": "viability, T/C", "setting": "second compound 0.1 µM, first compound 1 µM", "result": 0.65, "unit": "%"},
      {"measurement": "viability, T/C", "setting": "[9]", "result": 48.6, "unit": "%"},
      {"measurement": "viability, T/C", "setting": "[10]", "result": 12.6, "unit": "%"},
      {"measurement": "viability, T/C", "setting": "[11]", "result": 11.1, "unit": "%"},
      {"measurement": "viability, T/C", "setting": "[12]", "result": 4.23, "unit": "%"},
      {"measurement": "viability, T/C", "setting": "second compound 0.316 µM, first compound 0.316 µM", "result": 1.5, "unit": "%"},
      {"measurement": "viability, T/C", "setting": "second compound 0.316 µM, first compound 1 µM", "result": 0.7, "unit": "%"},
      {"measurement": "viability, T/C", "setting": "[13]", "result": 47.8, "unit": "%"},
      {"measurement": "viability, T/C", "setting": "[14]", "result": 13.7, "unit": "%"},
      {"measurement": "viability, T/C", "setting": "[15]", "result": 10.4, "unit": "%"},
      {"measurement": "viability, T/C", "setting": "[16]", "result": 5.54, "unit": "%"},
      {"measurement": "viability, T/C", "setting": "second compound 1 µM, first compound 0.316 µM", "result": 1.41, "unit": "%"},
      {"measurement": "viability, T/C", "setting": "second compound 1 µM, first compound 1 µM", "result": 3.04, "unit": "%"},
      {"measurement": "viability, T/C", "setting": "[17]", "result": 47.9, "unit": "%"},
      {"measurement": "viability, T/C", "setting": "[18]", "result": 15.1, "unit": "%"},
      {"measurement": "viability, T/C", "setting": "[19]", "result": 9.79, "unit": "%"},
      {"measurement": "viability, T/C", "setting": "[20]", "result": 3.28, "unit": "%"},
      {"measurement": "viability, T/C", "setting": "second compound 3.16 µM, first compound 0.316 µM", "result": 1.52, "unit": "%"},
      {"measurement": "viability, T/C", "setting": "second compound 3.16 µM, first compound 1 µM", "result": 0.83, "unit": "%"},
      {"measurement": "viability, T/C", "setting": "[21]", "result": 41.9, "unit": "%"},
      {"measurement": "viability, T/C", "setting": "[22]", "result": 14.7, "unit": "%"},
      {"measurement": "viability, T/C", "setting": "[23]", "result": 11.6, "unit": "%"},
      {"measurement": "viability, T/C", "setting": "[24]", "result": 4.49, "unit": "%"},
      {"measurement": "viability, T/C", "setting": "second compound 10 µM, first compound 0.316 µM", "result": 1.89, "unit": "%"},
      {"measurement": "viability, T/C", "setting": "second compound 10 µM, first compound 1 µM", "result": 0.9, "unit": "%"}
    ]}
  ]
}
